Assay results as given in patent US20080009538A1, “Methods and compositions for the treatment of urinary incontinence” (priority 2005, published 2008).
Structures can show the parent of a compound that is named as a salt. Where two headings read alike, the source gives them in different places.

Experiments:
[1] = tested on: Adult female guinea pigs; experiment: Urethral function in guinea pigs (external urethral sphincter EMG); assay type: in vivo, guinea pig; conditions: intravenous, normal bladder filling, versus no drug or vehicle
Description: Yet another animal model for evaluating efficacy of bicifadine as an anti-incontinence drug is a widely accepted guinea pig model, also predictive of anti-incontinence drug activity in humans. Adult female guinea pigs, weighing 620-707 g, are initially anesthetized with halothane and maintained with urethane. A cannula is inserted into the trachea, a jugular vein and a carotid artery for respiratory ventilation, injection of the test compound and monitoring of the blood pressure, respectively. A midline laporatomy is performed to expose the urinary bladder and a cystometry tube is inserted through a small incision in the dome of the bladder. The abdominal wound is closed tightly around the externalized cystometry tube, which is connected to an infusion pump and pressure transducer, for filling the bladder and recording intravesical pressure. Electromyographic electrodes are inserted into the striated muscles of the external urethral sphincter.
The bladder is filled at a rate of 150 μl/min^−1 with saline until initiation of a micturition reflex. […]
The bladder is then filed to 75% of the threshold volume with saline and weights are positioned on the ventral surface of the abdomen of the animal just rostral to the position of the bladder. […] Electromyographic activity and intravesical pressure are recorded while weights are applied to the abdomen. […]

[2] = tested on: Female rats; experiment: Neurogenic overactive bladder in spinal cord transected rats; assay type: in vivo, rat; conditions: versus no drug or vehicle
Protocol: The spinal cord is transected and the intervening space filled with Gelfoam. The overlying muscle layers and skin are sequentially closed with suture, and the animals are treated with antibiotic (100 mg/kg ampicillin s.c.) Residual urine is expressed prior to returning the animals to their cages, and thereafter 3 times daily until terminal experimentation four weeks later. On the day of the experiment, the animals are anesthetized with isofluorane (4%) and a jugular catheter is inserted for access to the systemic circulation and tunneled subcutaneously to exit through the midscapular region. Via a midline abdominal incision, a catheter with a fire-flared tip is inserted into the dome of the bladder through a small cystotomy and secured by ligation for bladder filling and pressure recording. Electrodes are inserted percutaneously into the external urethral sphincter for electromyography readings. […]
Following a 60-90 minute control period of normal saline infusion (0.100-0.150 ml/min) to collect baseline continuous open cystometric data, the pump is turned off, the bladder is emptied, the pump turned back on, and bladder capacity is estimated by a filling cystometrogram. […] Following the third administration of vehicle control, bladder capacity is again measured through a cystometrogram. […] Bladder capacity is measured as described above at 20 minutes following each subsequent drug treatment.

[3] = target: T1, 5-HT2A receptor (Homo sapiens, UniProt P28223); experiment: 5-HT2A receptor [3H]LSD binding screen, recombinant receptors in CHO cells; conditions: [3H]LSD 1.2 nM, recombinant human 5-HT2A in CHO cells, 37° C., 30 min, read-out: inhibition of radioligand binding
T1 construct: expressed in transfected cells; host or cells: CHO cells

[4] = tested on: Female rats; experiment: Dilute acetic acid model in rats (filling cystometry); assay type: in vivo, rat; conditions: intraduodenal, 0.25% acetic acid continuous irritation
Description: Additional animal models for evaluating efficacy of bicifadine as an anti-incontinence drug include a widely accepted rat model predictive of anti-incontinence drug activity in humans. Female rats (250-275 g BW, n=8) are anesthetized with urethane (1.2 g/kg) and a saline-filled catheter is inserted into the proximal duodenum for intraduodenal drug administration. A flared-tipped catheter is inserted into the bladder dome, via a midline lower abdominal incision, for bladder filling and pressure recording, and secured by ligation. Electromyography elctrodes are inserted into the external urethral sphincter percutaneously.
In the control, saline is continuously infused at a rate of about 0.055 ml/min via the bladder filling catheter for about 60 minutes to obtain a baseline of lower urinary tract activity. […] Bladder capacity (ml) is calculated as the flow rate of the bladder filling solution […] multiplied by the elapsed time between commencement of bladder filling and occurrence of bladder contraction (min).
Following the control period, a 0.25% acetic acid solution in saline is infused into the bladder to induce bladder irritation. […] Following injection of the third vehicle control, bladder capacity is again measured using acetic acid to fill the bladder. […]

[5] = target: T2, norepinephrine transporter protein (Homo sapiens, UniProt P23975); experiment: [3H]norepinephrine uptake in HEK 293 cells expressing the transporter; assay type: cell-based; conditions: recombinant human norepinephrine transporter, 20 nM [3H]norepinephrine, read-out: inhibition of [3H]Norepinephrine uptake (IC50)
T2 construct: expressed in transfected cells; host or cells: HEK 293 cells
Protocol: (§1) The effects bicifadine on [^3H]norepinephrine and [^3H]serotonin uptake were measured in HEK 293 cells expressing the recombinant human forms of the norepinephrine and serotonin transporter proteins, respectively using a modification of the techniques described by Eschleman, et al., (1999). Cells were grown on 150-mm-diameter tissue culture dishes until confluent. Medium was removed from the plates and the cells were washed twice with Ca^2+, Mg^2+-free PBS. Fresh Ca^2+, Mg^2+-free PBS (2.5 ml) was then added to each plate and the plates were placed in a 25° C. water bath for 5 min. The cells were then gently scraped from the plates, and cell clusters were separated by trituration with a pipette for 5 to 10 aspirations and ejections. Aliquots (50 μl) of the suspended cells were then added to assay tubes (in triplicate) containing various concentrations of bicifadine and Krebs-HEPES assay buffer in a final assay volume of 0.5 ml. Following a 10-min pre-incubation in a 25° C. water bath, [^3H]norepinephrine or serotonin (20 nM final concentration) was added, and the assay was incubated for 10 min. The reaction was terminated by filtration through Wallac filtermat A filters presoaked in 0.05% polyethylenimine, using a Tomtec cell harvester. Scintillation fluid was then added to each filtered spot, and radioactivity remaining on the filters was determined by scintillation counting. […]

[6] = target: α2 adrenergic receptor; experiment: α2 adrenergic receptor [3H]RX 821002 binding, rat cerebral cortex preparation
Protocol: This assay was conducted by incubating the rat cortex preparation with a 0.5 nM concentration of [^3H]RX 821002 for 30 min at 22° C. in the presence of either 0.1, 0.3, 1, 3, or 10 μM concentrations bicifadine HCl. Unlabelled (−)epinephrine (100 μM) was used to determine nonspecific binding. The assay was terminated by vacuum filtration, and the amount of radiolabeled receptor retained by the filter measured by scintillation counting. […] Recombinant human 5-HT2A receptors expressed in CHO cells were incubated with bicifadine HCl (0.1, 1 or 10 μM) and [^3H]LSD (1.2 nM) at 37° C. for 30 min (Bonhaus 1995). Serotonin (10 μM) was used to determine nonspecific binding.
(§2) Ki=inhibitory constant defined as IC50/L+KD; IC50=concentration of bicifadine HCl that inhibits 50% of the maximal response; L=concentration of radioligand added; KD, dissociation constant of the radioligand at equilibrium.

[7] = Blood pressure in human subjects; assay type: in vivo
[8] = target: α1 adrenergic receptor; experiment: α1 adrenergic receptor [3H]prazosin binding, rat cerebral cortex preparation; conditions: [3H]prazosin 0.25 nM, 60 min at 22° C., read-out: Inhibition of radioligand binding, affinity (Ki)
Protocol: At the end of 60 min, the assay was terminated by vacuum filtration and the amount of radioactivity deposited on the filter measured by scintillation counting.
as §2

[9] = target: T3, serotonin transporter protein (Homo sapiens, UniProt P31645); experiment: [3H]serotonin uptake in HEK 293 cells expressing the transporter; assay type: cell-based; conditions: recombinant human serotonin transporter, 20 nM [3H]serotonin, read-out: inhibition of [3H]Serotonin uptake (IC50)
T3 construct: expressed in transfected cells; host or cells: HEK 293 cells
Protocol: as §1

[10] = tested on: Adult cats; experiment: Dilute acetic acid bladder model in anesthetized cats (cystometrogram); assay type: in vivo, cat; conditions: i.v., during 0.5% acetic acid infusion
Protocol: Adult cats (male and female) were anesthetized with α-chloralose (50-75 mg/kg i.v.) A cannula was inserted into the trachea to maintain a clear airway. One catheter was inserted into the carotid artery to measure systemic blood pressure, and another was placed into the radial vein for injecting bicifadine hydrochloride. All doses of bicifadine hydrochloride were based on body weight.
Electromyography electrodes were placed in the periurethral striated muscle. A catheter was inserted through the dome of the bladder and was used to infuse either saline for the control or dilute (0.5%) acetic acid into the test cats. The catheter was also used to record bladder pressure during each voiding cystometrogram. After bladder capacity was established using the saline infusion, cysometrograms were taken after an infusion of dilute acetic acid and changes in bladder capacity were recorded. […] Fluid release during micturition was measured by collecting the fluid in a cylinder attached to a force transducer.
On reaching micturition threshold, acetic acid infusion of the bladder was continued, resulting in rhythmic micturition contractions throughout the infusion period. During this time of rhythmic bladder activity, either vehicle as the control or bicifadine hydrochloride was administered. Five minutes after each administration of bicifadine hydrochloride, the bladder was emptied and another cystometrogram was performed. This procedure was repeated with increasing doses of bicifadine hydrochloride.
Under control conditions, rapid increases in intravessicular pressure were recorded after infusion of 5.3±0.6 ml saline into an initially empty bladder. Bladder capacity was reached after infusion of approximately 10.5 ml of saline. When acetic acid was infused, bladder capacity was reduced by more than half. […] Normal time to contraction following instillation of saline into the bladder is approximately 1286 seconds.

T3 sequence (P31645 whole entry): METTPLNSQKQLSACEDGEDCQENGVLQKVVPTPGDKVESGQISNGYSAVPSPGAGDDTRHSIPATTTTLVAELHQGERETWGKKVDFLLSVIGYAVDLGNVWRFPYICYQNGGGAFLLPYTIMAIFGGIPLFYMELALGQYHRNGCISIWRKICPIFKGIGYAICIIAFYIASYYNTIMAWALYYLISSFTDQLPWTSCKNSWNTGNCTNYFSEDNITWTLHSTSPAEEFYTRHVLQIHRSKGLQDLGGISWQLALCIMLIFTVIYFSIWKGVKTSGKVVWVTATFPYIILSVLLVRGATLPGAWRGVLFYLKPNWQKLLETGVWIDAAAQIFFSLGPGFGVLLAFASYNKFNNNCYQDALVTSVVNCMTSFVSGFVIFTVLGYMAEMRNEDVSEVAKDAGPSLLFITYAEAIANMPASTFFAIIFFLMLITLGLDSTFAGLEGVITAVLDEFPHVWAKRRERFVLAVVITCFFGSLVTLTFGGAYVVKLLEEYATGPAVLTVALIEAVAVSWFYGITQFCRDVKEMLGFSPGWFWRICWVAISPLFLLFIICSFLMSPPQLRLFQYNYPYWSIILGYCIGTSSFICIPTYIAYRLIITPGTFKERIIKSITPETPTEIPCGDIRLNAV
T1 sequence (P28223 whole entry): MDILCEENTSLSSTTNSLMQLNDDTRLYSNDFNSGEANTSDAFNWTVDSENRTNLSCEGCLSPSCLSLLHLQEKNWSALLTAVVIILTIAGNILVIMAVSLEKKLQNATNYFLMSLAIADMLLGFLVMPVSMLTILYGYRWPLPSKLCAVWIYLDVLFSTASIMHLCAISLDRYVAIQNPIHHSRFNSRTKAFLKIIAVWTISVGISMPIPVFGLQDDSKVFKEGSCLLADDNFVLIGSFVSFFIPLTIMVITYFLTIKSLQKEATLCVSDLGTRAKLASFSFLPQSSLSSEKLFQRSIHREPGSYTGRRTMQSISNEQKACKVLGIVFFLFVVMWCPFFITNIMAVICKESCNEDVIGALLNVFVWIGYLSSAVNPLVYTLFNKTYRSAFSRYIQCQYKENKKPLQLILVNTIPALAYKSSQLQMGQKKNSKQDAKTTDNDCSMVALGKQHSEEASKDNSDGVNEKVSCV
T2 sequence (P23975 whole entry): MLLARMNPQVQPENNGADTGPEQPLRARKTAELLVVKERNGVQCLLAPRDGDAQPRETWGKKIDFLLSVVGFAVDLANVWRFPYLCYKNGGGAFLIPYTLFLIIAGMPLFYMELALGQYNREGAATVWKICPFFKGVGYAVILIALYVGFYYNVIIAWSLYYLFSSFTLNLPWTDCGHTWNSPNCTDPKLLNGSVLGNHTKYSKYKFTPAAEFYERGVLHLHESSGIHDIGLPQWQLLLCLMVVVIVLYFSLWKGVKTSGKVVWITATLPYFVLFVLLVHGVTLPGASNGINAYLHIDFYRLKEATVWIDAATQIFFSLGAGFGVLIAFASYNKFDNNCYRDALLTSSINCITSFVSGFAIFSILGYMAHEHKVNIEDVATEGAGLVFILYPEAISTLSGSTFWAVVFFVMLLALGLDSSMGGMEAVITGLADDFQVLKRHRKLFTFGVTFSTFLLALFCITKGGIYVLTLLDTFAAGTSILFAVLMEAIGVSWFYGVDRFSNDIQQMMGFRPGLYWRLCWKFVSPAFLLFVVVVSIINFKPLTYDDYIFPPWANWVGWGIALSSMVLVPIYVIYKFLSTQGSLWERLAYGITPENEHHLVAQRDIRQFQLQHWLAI

For `Cc1ccc([C@]23CNC[C@H]2C3)cc1` (racemic) [Bicifadine HCl, (±)-1-(4-methylphenyl)-3-azabicyclo[3.1.0]hexane hydrochloride], the “electromyographic activity of external urethral sphincter” value [1] was “increase in electromyographic activity”, the bladder capacity [2] was “increase in bladder capacity” and the inhibition at 10 µM [3] was 82%. The bladder capacity [4] was “increase in bladder capacity”, the IC50 [5] was 54.7 nM and the Ki ([6]; read-out: Inhibition of radioligand binding, affinity (Ki), [3H]RX 821002 0.5 nM, 30 min at 22° C., hydrochloride) was 610 nM. The Ki ([6]; read-out: Inhibition of radioligand binding, affinity (Ki), [3H]RX 821002 0.5 nM, 30 min at 22° C., listed as bicifadine, hydrochloride) was 600 nM, the “alterations in blood pressure” value [7] was “did not cause significant alterations in blood pressure” and the Ki [8] was 1000 nM. For the same molecule, the IC50 [9] was 117 nM, the bladder activity [10] was “pronounced inhibition of bladder activity” and the bladder capacity [10] was “increased bladder capacity to near control conditions”. For the same molecule, the “time to contraction (latency to bladder contraction)” value [10] was “increased the time to contraction”.

For `Cc1ccc(C23CNCC2C3)cc1.Cl` (single isomer, unassigned; (+)) [(+)-bicifadine HCl, (+)-1-(p-Tolyl)-3-azabicyclo[3.1.0]hexane hydrochloride], the bladder activity [10] was “pronounced inhibition of bladder activity”, the bladder capacity [10] was “increased bladder capacity to near control conditions” and the “time to contraction (latency to bladder contraction)” value [10] was “increased the time to contraction”.
